Laboratory results from publication PMC6522510 (Nature Communications, 2019).
Where two headings read alike, the source gives them in different places.

Key:
MOLM-13 [1] = test: Secondary dose-response HTS, Cell Titer Glo; assay type: cell-based, human; conditions: secondary high-throughput screen, MOLM-13; for EC50: read-out: average effective concentration, MOLM-13
MV4-11 [2] = test: Secondary dose-response HTS, Cell Titer Glo; assay type: cell-based, human; conditions: secondary high-throughput screen, MV4-11; for EC50: read-out: average effective concentration, MV4-11
CHRF288-11 [3] = test: Secondary dose-response HTS, Cell Titer Glo; assay type: cell-based, human; conditions: secondary high-throughput screen, CHRF288-11; for EC50: read-out: average effective concentration, CHRF288-11
CMK [4] = test: Secondary dose-response HTS, Cell Titer Glo; assay type: cell-based, human; conditions: CMK; for EC50: read-out: average effective concentration, CMK
CMS [5] = test: Secondary dose-response HTS, Cell Titer Glo; assay type: cell-based, human; conditions: for EC50: read-out: average effective concentration, CMS
ML2 = test: Secondary dose-response HTS, Cell Titer Glo; assay type: cell-based, human; conditions: secondary high-throughput screen, ML-2; for EC50: read-out: average effective concentration, ML-2
U937 [6] = test: Secondary dose-response HTS, Cell Titer Glo; assay type: cell-based, human; conditions: secondary high-throughput screen, U937; for EC50: Homo sapiens, U-937, read-out: average effective concentration, U937
MOLM-13 [7] = test: cells; parameters: species or system AML cell lines (8); Secondary HTS, 10-point dose-response in triplicate, Cell Titer Glo viability, four-parameter fit EC50; conditions: Homo sapiens, MOLM-13, 72 h, read-out: MOLM-13
MV4-11 [8] = test: cells; parameters: species or system AML cell lines (8); Secondary HTS, 10-point dose-response in triplicate, Cell Titer Glo viability, four-parameter fit EC50; conditions: Homo sapiens, MV4-11, 72 h, read-out: MV4-11
CMK [9] = test: cells; parameters: species or system AML cell lines (8); Secondary HTS, 10-point dose-response in triplicate, Cell Titer Glo viability, four-parameter fit EC50; conditions: Homo sapiens, CMK, 72 h, read-out: CMK
CHRF288-11 [10] = test: cells; parameters: species or system AML cell lines (8); Secondary HTS, 10-point dose-response in triplicate, Cell Titer Glo viability, four-parameter fit EC50; conditions: 72 h, read-out: CHRF288-11
CMS [11] = test: cells; parameters: species or system AML cell lines (8); Secondary HTS, 10-point dose-response in triplicate, Cell Titer Glo viability, four-parameter fit EC50; conditions: 72 h, read-out: CMS
M07e = test: cells; parameters: species or system AML cell lines (8); Secondary HTS, 10-point dose-response in triplicate, Cell Titer Glo viability, four-parameter fit EC50; conditions: M-07e, 72 h, read-out: M07e
U937 [12] = test: cells; parameters: species or system AML cell lines (8); Secondary HTS, 10-point dose-response in triplicate, Cell Titer Glo viability, four-parameter fit EC50; conditions: Homo sapiens, U-937, 72 h, read-out: U937
[13] = secondary high-throughput screen
[14] = secondary high-throughput screen, CMS
[15] = Homo sapiens, secondary high-throughput screen
[16] = Homo sapiens, HTS, secondary high-throughput screen, CMS

SMILES | average effective concentration, U937 (U937 [6]) | average effective concentration, MV4-11 (MV4-11 [2]) | average effective concentration, CMS (CMS [5]; [14]) | EC50 (MV4-11 [2]; Homo sapiens) [nM] | EC50 (ML2; Homo sapiens) [nM] | EC50 (M07e) [nM] | EC50 (MOLM-13 [1]; Homo sapiens) [nM] | EC50 (CHRF288-11 [3]; Homo sapiens, HTS) [nM] | EC50 (U937 [6]) [nM] | other results
C[C@H](Oc1cc(-c2cnn(C3CCNCC3)c2)cnc1N)c1c(Cl)ccc(F)c1Cl [(S)-CRIZOTINIB] | Inactive | – | – | – | – | – | – | – | – | EC50 (MOLM-13 [1]): 3900 nM; EC50 (MV4-11 [2]): 3900 nM; EC50 (CHRF288-11 [3]): 7800 nM; EC50 (CMK [4]; [13]): 4200 nM; EC50 (CMS [5]; [14]): 8300 nM; EC50 (ML2): 5000 nM
Cc1noc(-c2ccc(-c3ccc(CC(=O)O)cc3)cc2)c1NC(=O)O[C@H](C)c1ccccc1 [AM-095] | Inactive | Inactive | Inactive | – | – | – | – | – | – | average effective concentration, CHRF288-11 (CHRF288-11 [3]): Inactive; average effective concentration, CMK (CMK [4]; [13]): Inactive; average effective concentration, ML-2 (ML2): Inactive
CON(C)C(=O)N1N=C(c2cc(F)ccc2F)S[C@@]1(CCCN)c1ccccc1 [ARRY-520] | – | – | – | – | – | – | – | – | – | EC50 (MOLM-13 [7]): > 10000 nM; EC50 (MV4-11 [8]): > 10000 nM; EC50 (CMK [9]): > 10000 nM
CN[C@@H](C)C(=O)N[C@H]1CN(C(=O)CC(C)C)CC[C@H]2CC[C@@H](C(=O)NC(c3ccccc3)c3ccccc3)N2C1=O [AT-406] | – | – | – | 1 | 6600 | > 10000 | – | – | – | EC50 (MOLM-13 [7]): > 10000 nM; EC50 (CHRF288-11 [10]): > 10000 nM; EC50 (CMK [9]): > 10000 nM; EC50 (CMS [11]): > 10000 nM; EC50 (U937 [12]): > 10000 nM
O=C(O)CC([S-])C(=O)O.[Au+] (centres unmarked) [AUROTHIOMALATE] | Inactive | Inactive | Inactive | – | – | – | – | – | – | average effective concentration, MOLM-13 (MOLM-13 [1]): Inactive; average effective concentration, CHRF288-11 (CHRF288-11 [3]): Inactive; average effective concentration, CMK (CMK [4]; [13]): Inactive
NC(=O)Nc1cc(-c2cccc(F)c2)sc1C(=O)N[C@H]1CCCNC1 [AZD7762] | – | – | – | 1 | 26 | > 10000 | > 10000 | 110 | 63 | EC50 (CMK [4]; [15]): 45 nM; EC50 (CMS [5]; [16]): 680 nM
COc1c(C)cnc(Cn2cnc3c(Cl)nc(N)nc32)c1C [BIIB021] | – | – | – | 56 | 83 | > 10000 | 55 | 91 | 30 | EC50 (CMK [4]; [15]): 67 nM; EC50 (CMS [5]; [16]): 110 nM
Nc1cc(C(F)(F)F)c(-c2cc(N3CCOCC3)nc(N3CCOCC3)n2)cn1 [BUPARLISIB] | – | – | – | 1800 | 1400 | > 10000 | 1500 | 5700 | 3000 | EC50 (CMK [4]; Homo sapiens): 4100 nM; EC50 (CMS [5]; Homo sapiens, HTS): 1600 nM
COCc1c(C(C)C)nc(C(C)C)c(/C=C/[C@@H](O)C[C@@H](O)CC(=O)O)c1-c1ccc(F)cc1 [CERIVASTATIN] | – | – | – | 340 | 1600 | > 10000 | 890 | 49 | 2300 | EC50 (CMK [4]; [15]): 160 nM; EC50 (CMS [5]; [16]): 6800 nM
Nc1nccc2c1ncn2C1C=C(CO)C(O)C1O (centres unmarked) [Compound 3-DEAZANEPLANOCIN] | Inactive | Inactive | Inactive | – | – | – | – | – | – | average effective concentration, ML-2 (ML2): Inactive
Nc1nc(=O)n([C@H]2C[C@H](O)[C@@H](CO)O2)cc1F [Compound 5-FLUORODEOXYCYTIDINE] | Inactive | Inactive | Inactive | – | – | – | – | – | – | –
Cc1nc(Nc2ncc(C(=O)Nc3c(C)cccc3Cl)s2)cc(N2CCN(CCO)CC2)n1 [DASATINIB] | – | – | – | – | > 10000 | > 10000 | – | 8400 | – | EC50 (MOLM-13 [7]): > 10000 nM; EC50 (MV4-11 [8]): > 10000 nM; EC50 (CMK [9]): > 10000 nM; EC50 (CMS [11]): > 10000 nM; EC50 (U937 [12]): > 10000 nM
